Assays:
[1] = system: patients with Parkinson's syndrome; assay: Clinical trial: unified scale for evaluation of Parkinsonism; assay type: in vivo, human; conditions: 3 months of treatment
Procedure: The efficacy of the treatment of Alzheimer-type dementias with marked intellectual-mnestic memory loss with polyprenols of formula (1) and a comparison of the efficacy of Ropren and Gliatilin was studied in patients during a 3-month course of treatment. Treatment efficacy on various functions before and after the treatment was assessed using the international scale MMSE ((evaluation of mental status—Mini-Mental State Examination, MMSE) Folstcin et al, 1975), “list with symptoms” questionnaire, unified scale for evaluation of Parkinsonism, EEG data, and biochemical parameters of the blood.
After treatment with Ropren, the Parkinson's syndrome decreased (on average by 5 points) in almost all patients, i.e., in 23 out of 25 patients or in 92%. This positive effect was found as early as 1 month after commencement of Ropren therapy. In the case of Gliatilin, improvement of Parkinson's syndrome was less pronounced (on average by 3 points) using the Parkinsonism rating scale.

[2] = system: patients with vascular dementia of the Alzheimer's type; assay: Clinical trial: electroencephalography (EEG) before and after therapy; assay type: in vivo, human; conditions: before vs after treatment (about 3 months), individual patients or group
Procedure: MMSE scale (parameter of evaluation of intellectually-mnestic functions of a patient before and after treatment) was used for the evaluation of intellect. […] Electroencephalography (EEG) was performed in 12 patients (48%) before and after the Ropren therapy.

C[N+](C)(C)CCOP(=O)([O-])OC[C@H](O)CO [Gliatilin, choline alfoscerate]
average decrease of Parkinson's syndrome on Parkinsonism rating scale [1]: 3 points | Changes in EEG [2]: No changes
